# Source: article PMC4769319, “Cohesin Releases DNA through Asymmetric ATPase-Driven Ring Opening” (Molecular Cell, 2016)
# Biological target: T1, Smc1/Smc3 heterodimer with Scc1-C (cohesin) (Saccharomyces cerevisiae, UniProt P32908+P47037, P32908:E1158Q, form not given)
# T1 construct: N-terminal tags; Sf9 insect cells; fluorescently labelled for MST; with Sister chromatid cohesion protein 1
# T1 sequence (P32908 1-1225 E1158Q): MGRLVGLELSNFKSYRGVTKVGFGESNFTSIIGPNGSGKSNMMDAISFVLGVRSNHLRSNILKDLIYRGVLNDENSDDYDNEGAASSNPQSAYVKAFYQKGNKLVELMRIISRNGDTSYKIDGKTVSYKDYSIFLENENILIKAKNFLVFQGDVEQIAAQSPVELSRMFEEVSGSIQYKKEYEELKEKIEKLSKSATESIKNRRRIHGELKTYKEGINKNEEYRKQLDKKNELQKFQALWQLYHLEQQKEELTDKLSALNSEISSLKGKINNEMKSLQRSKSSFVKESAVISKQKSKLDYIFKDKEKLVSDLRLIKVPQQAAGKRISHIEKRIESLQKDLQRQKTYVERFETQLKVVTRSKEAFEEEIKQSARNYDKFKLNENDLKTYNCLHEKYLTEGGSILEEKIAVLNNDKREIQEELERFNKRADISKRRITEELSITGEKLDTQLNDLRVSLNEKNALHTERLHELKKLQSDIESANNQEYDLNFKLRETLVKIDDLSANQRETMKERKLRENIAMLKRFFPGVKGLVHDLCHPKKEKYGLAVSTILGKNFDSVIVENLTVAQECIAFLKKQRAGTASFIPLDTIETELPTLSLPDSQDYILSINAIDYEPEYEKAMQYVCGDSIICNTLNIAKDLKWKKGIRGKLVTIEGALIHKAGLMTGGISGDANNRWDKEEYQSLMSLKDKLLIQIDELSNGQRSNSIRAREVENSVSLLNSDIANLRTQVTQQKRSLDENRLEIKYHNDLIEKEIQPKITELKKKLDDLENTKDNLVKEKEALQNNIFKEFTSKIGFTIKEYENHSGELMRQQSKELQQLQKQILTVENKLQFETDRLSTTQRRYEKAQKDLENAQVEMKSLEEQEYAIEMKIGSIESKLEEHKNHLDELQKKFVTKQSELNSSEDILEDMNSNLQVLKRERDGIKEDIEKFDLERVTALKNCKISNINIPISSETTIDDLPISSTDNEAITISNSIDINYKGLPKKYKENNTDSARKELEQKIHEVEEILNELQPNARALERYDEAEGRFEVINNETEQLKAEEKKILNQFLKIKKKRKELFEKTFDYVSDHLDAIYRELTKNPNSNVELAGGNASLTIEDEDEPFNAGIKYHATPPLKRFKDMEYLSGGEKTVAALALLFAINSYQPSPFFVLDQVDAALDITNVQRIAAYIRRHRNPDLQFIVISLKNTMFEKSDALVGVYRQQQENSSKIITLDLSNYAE
# T1 sequence (P47037 1-1230): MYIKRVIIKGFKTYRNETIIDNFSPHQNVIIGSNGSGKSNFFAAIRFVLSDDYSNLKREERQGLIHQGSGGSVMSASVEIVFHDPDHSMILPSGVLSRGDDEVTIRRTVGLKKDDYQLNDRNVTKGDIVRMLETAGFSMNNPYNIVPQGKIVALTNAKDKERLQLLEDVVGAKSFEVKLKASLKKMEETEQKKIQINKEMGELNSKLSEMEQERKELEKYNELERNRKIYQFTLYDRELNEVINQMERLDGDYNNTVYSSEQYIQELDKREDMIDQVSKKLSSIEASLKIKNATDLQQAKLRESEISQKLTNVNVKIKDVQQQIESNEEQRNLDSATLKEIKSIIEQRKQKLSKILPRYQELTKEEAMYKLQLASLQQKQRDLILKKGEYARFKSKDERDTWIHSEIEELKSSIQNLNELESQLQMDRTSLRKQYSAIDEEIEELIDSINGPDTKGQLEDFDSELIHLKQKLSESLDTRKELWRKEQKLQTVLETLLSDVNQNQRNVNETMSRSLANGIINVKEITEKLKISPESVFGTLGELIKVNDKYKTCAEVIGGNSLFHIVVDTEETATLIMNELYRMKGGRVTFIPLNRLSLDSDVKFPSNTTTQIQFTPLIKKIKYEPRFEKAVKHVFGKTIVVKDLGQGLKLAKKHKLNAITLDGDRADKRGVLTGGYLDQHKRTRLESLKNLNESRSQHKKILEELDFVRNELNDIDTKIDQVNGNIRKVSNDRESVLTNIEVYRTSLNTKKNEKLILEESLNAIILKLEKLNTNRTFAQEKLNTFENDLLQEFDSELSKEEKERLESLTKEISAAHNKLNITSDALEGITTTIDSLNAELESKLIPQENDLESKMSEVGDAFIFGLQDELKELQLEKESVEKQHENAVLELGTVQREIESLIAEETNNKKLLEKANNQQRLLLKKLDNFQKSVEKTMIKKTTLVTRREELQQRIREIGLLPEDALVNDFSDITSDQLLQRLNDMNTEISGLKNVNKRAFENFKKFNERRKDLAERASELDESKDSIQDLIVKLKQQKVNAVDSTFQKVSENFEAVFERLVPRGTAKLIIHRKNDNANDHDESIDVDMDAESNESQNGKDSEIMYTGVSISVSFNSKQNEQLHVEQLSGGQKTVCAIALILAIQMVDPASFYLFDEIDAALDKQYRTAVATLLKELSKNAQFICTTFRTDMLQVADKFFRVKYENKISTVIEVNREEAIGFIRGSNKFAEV
# T1 sequence (Q12158 1-566 partner): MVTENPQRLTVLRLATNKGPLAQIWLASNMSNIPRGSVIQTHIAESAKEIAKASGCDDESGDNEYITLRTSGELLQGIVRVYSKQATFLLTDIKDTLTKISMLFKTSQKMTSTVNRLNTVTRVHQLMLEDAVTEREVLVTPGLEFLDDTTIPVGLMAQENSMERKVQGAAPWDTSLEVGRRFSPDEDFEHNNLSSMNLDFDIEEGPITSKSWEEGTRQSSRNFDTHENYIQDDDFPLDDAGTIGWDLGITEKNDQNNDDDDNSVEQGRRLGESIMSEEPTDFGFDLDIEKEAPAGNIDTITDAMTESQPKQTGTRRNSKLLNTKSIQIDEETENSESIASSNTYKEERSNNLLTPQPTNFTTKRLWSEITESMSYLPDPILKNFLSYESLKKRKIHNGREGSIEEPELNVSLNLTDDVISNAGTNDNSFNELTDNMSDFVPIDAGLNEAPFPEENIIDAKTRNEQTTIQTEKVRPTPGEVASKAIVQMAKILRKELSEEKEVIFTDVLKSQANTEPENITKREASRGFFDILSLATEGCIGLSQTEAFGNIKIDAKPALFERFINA
# Assay: microscale thermophoresis
# Assay type: binding
# Settings: fluorescently labelled protein; Smc1 co-purified with Scc1-C, plus Smc3; read-out: affinity
# From the text: microscale thermophoresis on Smc1/Smc3 heterodimer with Scc1-C (cohesin) | Smc1 L1129V, D1164E and E1158Q mutants all had wild-type-like affinity to both ATP and ADP | wild-type and mutant cohesin complexes appear to have similar affinities to ADP
row,Kd [µM],SMILES
1,> 1000,Nc1ncnc2c1ncn2[C@@H]1O[C@H](COP(=O)(O)OP(=O)(O)O)[C@@H](O)[C@H]1O [ADP]
2,567 ± 289,Nc1ncnc2c1ncn2[C@@H]1O[C@H](COP(=O)(O)OP(=O)(O)OP(=O)(O)O)[C@@H](O)[C@H]1O [ATP]
